The record followed here is paper PMC11494293, “Biochemical and structural insights into a 5’ to 3’ RNA ligase reveal a potential role in tRNA ligation” (Proceedings of the National Academy of Sciences of the …, 2024).

In the test the target is T1, YspRLIG1 (Yasminevirus RLIG1) (Yasminevirus sp. GU-2018, UniProt A0A5K0UB63).
T1 construct: gene YASMINEVIRUS_1364; minimal RNA ligase (NTase) fold; active-site Lys73
T1 sequence (A0A5K0UB63 1-276): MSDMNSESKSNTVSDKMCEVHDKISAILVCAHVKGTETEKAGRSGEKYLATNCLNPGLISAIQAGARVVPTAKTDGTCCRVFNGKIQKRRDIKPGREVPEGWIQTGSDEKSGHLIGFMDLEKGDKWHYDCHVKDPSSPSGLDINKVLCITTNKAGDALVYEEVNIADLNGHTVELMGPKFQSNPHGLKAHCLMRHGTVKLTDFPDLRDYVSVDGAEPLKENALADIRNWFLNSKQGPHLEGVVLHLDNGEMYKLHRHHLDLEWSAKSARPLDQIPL
The test is described as follows: X-ray crystal structure. The format is binding. Particulars: crystallised in the presence of ATP, active site, either AMP or ADP modelled.

`Nc1ncnc2c1ncn2[C@@H]1O[C@H](COP(=O)(O)OP(=O)(O)O)[C@@H](O)[C@H]1O` [ADP]: the X-ray crystal structure result is on record as “In the ADP-bound YspRLIG1^WT structure, the O5-Pα bond is rotated”.

On to `Nc1ncnc2c1ncn2[C@@H]1O[C@H](COP(=O)(O)O)[C@@H](O)[C@H]1O` [AMP], for which the X-ray crystal structure result (WT protein adenylated) was “In the WT structure, either AMP or ADP was modeled in the active site”.
